Results taken from patent publication US10416175B2, “Opioid detection” (Randox Laboratories Limited, priority 2015, dated 2019).
Converted amounts (≈) assume the structure as drawn. “And” between values parts separate entries of the source, which are not always exact repeats. Equal values may be shown once. Where a name gives a salt, the structure may show the parent alone.

What was measured:
[1] = system: IDS Tramadol commercial immunoassay; settings: cited from earlier work
[2] = system: Immunanalysis Tramadol commercial immunoassay; settings: cited from earlier work
[3] = system: Randox Tramadol commercial immunoassay; settings: cited from earlier work
[4] = system: antibody raised against Immunogen-2; test: Competitive ELISA with polyclonal antibody raised against Immunogen-2, Tracer-1 as detecting agent; format: binding, sheep; settings: for % CR: relative to O-desmethyltramadol = 100
Description: Pre-immunization blood samples are collected from sheep. In order to generate polyclonal antisera, 2 mgs of the immunogen (structure 1) is prepared in PBS, mixed at a ratio of 50% immunogen in PBS to 50% Freund's Complete adjuvant (Sigma, Product Number F5881) and emulsified by repeatedly passing the mixture through a tip on the end of a 1 ml syringe, until it reaches the required semi-solid consistency. 1.1 ml of the emulsified mixture is injected intramuscularly into each host animal (sheep) as the primary immunisation dose. Further injections (boosts) are prepared (1 mg of immunogen is prepared in PBS and mixed at a ratio of 50% Immunogen in PBS/50% Freunds Incomplete adjuvant, Sigma, Product Number—F5506). Boost injections are delivered intramuscularly at monthly intervals, 1 ml per animal. Serum is sampled monthly by collection of whole blood from the jugular vein for evaluation of the antibody titre. The degree of antibody purification required depends on the intended application. For many purposes, there is no requirement for purification of the serum, however, in other cases, such as, where the antibody is to be immobilised on a solid support, purification steps (such as caprylic acid/ammonium sulphate precipitation) can be taken to remove undesired material and eliminate non-specific binding. In another embodiment, the purification is by immunoglobulin precipitation, antigen-specific affinity purification, column chromatography, such as, size-exclusion chromatography or ion exchange chromatography.
The polyclonal antibody raised against Immunogen-2 of Example 9 was removed from fridge or freezer and brought to room temperature. The antibody was diluted to 2.5 μg/ml in 10 mM Tris pH 8.5 and all appropriate wells are coated at 125 μl/well at 37° C. for 2 hours or at 4° C. overnight. The plate was washed 4 times over a period of 10 minutes with working strength tris-buffered saline and tween 20 (TBST) wash buffer and tapped dry. 50 μl of working strength TBST was pipetted into the appropriate wells. Dilutions of target analyte and potential crossreactant(s) were prepared in working strength TBST and pipetted (50 μl) into the appropriate wells beginning with the lowest concentration to the highest concentration. Hapten-HRP (Tracer-1) conjugate at the appropriate concentration was prepared in conjugate dilution buffer and 75 μl into pipetted into appropriate wells. The plate was tapped gently to mix contents, sealed and incubated at 25° C. for 1 hour. The plate was washed 6 times over a 10-15 minute period (3 quick washes followed by 3 additional washes over 12 minutes) and tapped dry thoroughly onto tissue paper. Trimethylbenzidine (TMB) solution (125 μl) was added to each well and tapped gently, and the plate was incubated at room temperature for 20 minutes in the dark. The reaction was stopped by addition of 125 μl of 0.2 M sulphuric acid to each well and the absorbance measured at 450 nm using an ELISA plate reader (Biotek Elx800).

[5] = system: Bio-Quant Tramadol commercial immunoassay; settings: cited from earlier work
[6] = over 24-72 hours, following oral administration of tramadol; cited from earlier work
[7] = system: Neogen Tramadol commercial immunoassay; settings: cited from earlier work
[8] = system: antibody specific to mitragynine; settings: polyclonal antibody of U.S. application 14/184,422, based on 100% to mitragynine; cited from earlier work
[9] = system: antibody specific to mitragynine; test: ELISA for mitragynine and 8-desmethylmitragynine (polyclonal antibody to mitragynine); format: binding; settings: for % CR: based on 100% specificity to mitragynine; for IC50: standard concentration which produces 50% B/B0
From the text: In one embodiment, the antibodies and immunoassay methods and kits for mitragynine (kratom), are as described in U.S. patent application Ser. No. 14/184,422, filed Feb. 19, 2014 entitled “Immunoassay for Detecting Kratom, its Constituents and their Use” the entire contents of which are incorporated herein by reference. In particular, U.S. patent application Ser. No. 14/184,422 describes a polyclonal antibody which that binds specifically to an epitope of one or more of mitragynine, 8-desmethylmitragynine, 8-sulphonylmitragynine, and 8-glucuronidylmitragynine which was raised to an immunogen having the structure of:
[drawing 5] • wherein HRP is horseradish peroxidase.

[10] = antibodies from three sheep immunised with Immunogen-2

Row | Compound | % Cross-reactivity [1] | % Cross-reactivity [2] | % Cross-reactivity [3] | B/Bo ([4]; 0.156 ng/ml analyte) | B/Bo ([4]; 0.313 ng/ml analyte) | B/Bo ([4]; 0.625 ng/ml analyte) | B/Bo ([4]; 1.250 ng/ml analyte) | B/Bo ([4]; 2.500 ng/ml analyte) | B/Bo ([4]; 5.000 ng/ml analyte) | B/Bo ([4]; 10.000 ng/ml analyte) | % CR [4] | % Cross-reactivity [5] | Urinary excretory amount [6] | % Cross-reactivity [7] | cross-reactivity [8] | B/Bo ([9]; 0.313 ng/ml analyte) | B/Bo ([9]; 0.625 ng/ml analyte) | B/Bo ([9]; 1.250 ng/ml analyte) | B/Bo ([9]; 2.500 ng/ml analyte) | B/Bo ([9]; 5.000 ng/ml analyte) | further results
1 | CNC[C@@H]1CCCC[C@@]1(O)c1cccc(OC)c1 (racemic) [N-Desmethyltramadol, (±)-cis-2-[(methylamino)methyl]-1-(3-methoxyphenyl)cyclohexanol] | <2% | 44% | 4% | 97 | 98 | 99 | 100 | 99 | 97 | 98 | <<1.78% | <5% | 2-31% | 6% | – | – | – | – | – | – | cross-reactivity (in words) [4, 10]: no cross-reactivity; IC50 ([4]; antibody raised against Immunogen-2, Tracer-1): >>10 ng/ml; binding (in words) ([4]; at the concentrations tested (Table 2)): no appreciable binding
2 | COc1cccc([C@]2(O)CCCC[C@H]2CN(C)C)c1 (racemic) [Tramadol, (±)-cis-2-[(dimethylamino)methyl]-1-(3-methoxyphenyl)cyclohexanol hydrochloride] | – | – | – | – | – | – | – | – | – | – | – | – | 12-32% | – | – | – | – | – | – | – | –
3 | CC[C@@H]1CN2CCc3c([nH]c4cccc(O)c34)[C@@H]2C[C@@H]1/C(=C\OC)C(=O)OC [8-Desmethylmitragynine, 8-desmethylmitragynine] | – | – | – | – | – | – | – | – | – | – | – | – | – | – | about 77.87% | 74 | 63 | 54 | 42 | 29 | B/Bo ([9]; 10.000 ng/ml analyte): 18; B/Bo ([9]; 20.000 ng/ml analyte): 13; % CR [9]: 77.87%; IC50 [9]: 1.532 ng/mL (≈ 3.98 nM)
4 | CC[C@@H]1CN2CCc3c([nH]c4cccc(OC)c34)[C@@H]2C[C@@H]1/C(=C\OC)C(=O)OC [Mitragynine, mitragynine] | – | – | – | – | – | – | – | – | – | – | – | – | – | – | 100% | 75 | 63 | 49 | 37 | 25 | B/Bo ([9]; 10.000 ng/ml analyte): 17; B/Bo ([9]; 20.000 ng/ml analyte): 11; % CR [9]: 100.00%; IC50 [9]: 1.193 ng/mL (≈ 2.99 nM)
5 | (±)-cis-2-[(dimethylamino)methyl]-1-(3 hydroxyphenyl)-cyclohexanol [O-Desmethyltramadol] | 40% | 6% | 57% | 53 | 37 | 24 | 16 | 10 | 6 | 4 | 100% | 100% | 5-15% | 27% | – | – | – | – | – | – | IC50 of antibodies to O-desmethyltramadol [4, 10]: 0.178 ng/mL and 0.181 ng/mL and 0.214 ng/mL
